Source: the supplement of paper PMC6206229
Values after ≈ are worked out from the molar mass of the structure shown.

Experiments:
[1] = system: Staphylococcus aureus ATCC 29213 (MSSA); test: minimum inhibitory concentration; extreme values may be limits of the assay
Method in brief: (§1)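 Methicillin-susceptible and methicillin-resistant Staphylococcus aureus were assessed by broth microdilution with a resazurin read-out, compounds spanning 0 to 100 µM and incubated for 24 h at 37°C before 30 µl of 0.015% resazurin was added for 2–4 h. For the minimum inhibitory concentration, the lowest concentration whose well stayed blue rather than pink was recorded.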

[2] = system: Staphylococcus aureus ATCC 700699 (MRSA); test: as above
Method in brief: as §1

| SMILES | minimum inhibitory concentration [1] | minimum inhibitory concentration [2] |
| --- | --- | --- |
| COc1cc(C(F)(F)F)nc2ccc(C)c(N)c12 | > 50 µM | > 50 µM |
| CCc1nn(C)c(C(=O)NCc2ccc(Oc3ccc(C)cc3)cc2)c1Cl | > 50 µM | > 50 µM |
| Cc1cnc(N2CCN[C@@H](Cc3ccccc3)C2)nc1Oc1ccc(-n2ccnc2)cc1 | > 50 µM | > 50 µM |
| O=C(Nc1ccccc1)c1ccc(-c2cc3ccncc3cc2OC2CCNCC2)s1 | 50 µM (≈ 21.5 µg/mL) | 50 µM (≈ 21.5 µg/mL) |
| CN1CCN(S(=O)(=O)c2ccc(-c3ccc4c(Nc5ncc(Cl)cn5)ccnc4c3)cc2)CC1 | > 50 µM | > 50 µM |
| O=C([C@@H](c1ccc(Cl)cc1)c1cccnc1)N1CCN(c2ccc(C(F)(F)F)cc2)CC1 | 50 µM (≈ 23 µg/mL) | 50 µM (≈ 23 µg/mL) |
| NC(=O)c1cc(Br)ccc1OCCOc1ccccc1 | > 50 µM | > 50 µM |
| CCc1ccc(S(=O)(=O)Nc2cc(CN3CCN(CCC(C)C)CC3)ccc2C)cc1 | > 50 µM | > 50 µM |
| NS(=O)(=O)c1cncc(-c2ccc3nccc(-c4cn[nH]c4)c3n2)c1 | > 50 µM | > 50 µM |
| Cc1noc(C)c1C(=O)N1CCCC(c2[nH]c3c(C)cccc3c2-c2ccncc2)C1 (stereo not drawn) | > 50 µM | > 50 µM |
| O=C(NC1CCN(c2ccnc3ccccc23)C1)c1cccc(C(F)(F)F)c1 (stereo not drawn) | > 50 µM | > 50 µM |
| Cc1[nH]c2cc(F)cc(F)c2c(=O)c1-c1ccc(Oc2ccc(OC(F)(F)F)cc2)cc1 | > 50 µM | > 50 µM |
| COc1cc(OC)cc(C(=O)NCC2Cc3cc(Cl)cc(-c4ccncc4)c3O2)c1 (stereo not drawn) | > 50 µM | > 50 µM |
| CCOc1ccccc1C(=O)Nc1cccc(-c2nc3ncccn3c2C)c1 | > 50 µM | > 50 µM |
| COc1ccc(OC(C)C(=O)Nc2ccc(Cl)cc2C)cc1 (stereo not drawn) | > 50 µM | > 50 µM |
| COc1cccc(NC(=O)c2c(NC(=O)c3cccnc3)sc3c2CCC3)c1 | > 50 µM | > 50 µM |
| CC(C)(C)OC(=O)N1CCC(Cn2nc(-c3cnc4ccccc4c3)c3c(N)ncnc32)CC1 | > 50 µM | > 50 µM |
| OC[C@H]1O[C@@H](n2c3ccc(Cl)cc3c3c(-c4cc5ccccc5o4)ncnc32)C(O)[C@H]1O (stereo partly drawn) | > 50 µM | > 50 µM |
| O=C(Nc1ccc2c(c1)B(O)OC2)c1ccccc1C(F)(F)F | > 50 µM | > 50 µM |
| CC(=O)Oc1ccccc1C(=O)Nc1ncc([N+](=O)[O-])s1 | > 50 µM | > 50 µM |
| CC(C)(C)n1nc(Cc2cccc3ccccc23)c2c(N)ncnc21 | > 50 µM | > 50 µM |
| COc1ccc(C2CC(c3cccs3)=NN2C(=O)c2ccco2)cc1OC (stereo not drawn) | > 50 µM | > 50 µM |
| Cc1ccc2oc(-c3cc(NC(=O)Cc4ccccc4)ccc3Cl)nc2c1 | > 50 µM | > 50 µM |

| SMILES | minimum inhibitory concentration [1] | minimum inhibitory concentration [2] |
| --- | --- | --- |
| Cc1nn(C)cc1C(C)Nc1nncc(-c2ccc(C(F)(F)F)cc2)n1 (stereo not drawn) | > 50 µM | > 50 µM |
| O=C(NCc1nnc2n1CCCCC2)c1ccc(-c2ccc(F)cc2)o1 | > 50 µM | > 50 µM |
| c1ccc(-c2cc(N3CCCCC3)c3ccccc3n2)nc1 | > 50 µM | > 50 µM |
| Clc1ccc(-n2cc(COc3ccnc4ccccc34)nn2)cc1 | > 50 µM | > 50 µM |
| Cc1nn(Cc2ccccc2)c(Cl)c1C(=O)NC1CCCCCC1 | > 50 µM | > 50 µM |
| c1ccc(Oc2ccc(-c3cc(C4CCOCC4)[nH]n3)cc2)cc1 | > 50 µM | > 50 µM |
| O=C(NCc1ccco1)N1CCN(Cc2ccc(Cl)s2)CC1 | > 50 µM | > 50 µM |
| O=C(C1CCCCC1)N1CC(=O)N2CCc3ccccc3C2C1 (stereo not drawn) | > 50 µM | > 50 µM |
| Cc1nnc(NC(=O)c2cn(-c3ccccc3)nc2-c2ccccc2C)o1 | > 50 µM | > 50 µM |
| COc1ccc2nc(C)cc(OCC(=O)NCc3ccccc3)c2c1 | > 50 µM | > 50 µM |
| Cc1cc(C)n(-c2ccc(NC(=O)C3CCN(Cc4cnc(C)s4)CC3)cc2)n1 | > 50 µM | > 50 µM |
| COc1ccc(Cl)cc1NC(=O)CN(C)C(=O)c1cnn(-c2ccccc2)n1 | > 50 µM | > 50 µM |
| FC(F)(F)c1cnc(Sc2nnc(-c3ccncc3)o2)c(Cl)c1 | > 50 µM | > 50 µM |
| CC(=O)N1CCc2cc3nc(C)cc(C)c3cc21 | > 50 µM | > 50 µM |
| Cc1cc(Nc2ccc(C(F)(F)F)cc2)n2ccnc2n1 | > 50 µM | > 50 µM |
| Cc1cccc(-c2nc(Nc3ccncn3)c3sccc3n2)n1 | > 50 µM | > 50 µM |
| CC(=O)NC[C@H]1CN(c2ccc(N3CCSCC3)c(F)c2)C(=O)O1 | 6.25 µM (≈ 2.21 µg/mL) | 3.12 µM (≈ 1.1 µg/mL) |
| CCOC(=O)c1cc(-c2csc(Nc3c(C)cc(C)cc3C)n2)on1 | > 50 µM | > 50 µM |
| COc1cc(C2=NCCN2)cc2cc(-c3ccc(C4=NCCN4)cc3)oc12 | > 50 µM | > 50 µM |
| Brc1cncc(-c2cc(NCCCn3ccnc3)nc(-c3ccccc3)n2)c1 | > 50 µM | > 50 µM |
| O=C(OCc1ccccc1)N1CCC(c2cc(-c3ccncc3)c(-c3ccc(F)cc3)[nH]2)CC1 | > 50 µM | > 50 µM |
| CC1=NN(c2nc3ccccc3s2)C(=O)C1Cc1cccc2ccccc12 (stereo not drawn) | > 50 µM | > 50 µM |
| N#CCN(CCCCN1CCN(c2ccc(F)cc2)CC1)C(=O)OCc1ccccc1 | > 50 µM | > 50 µM |

| SMILES | minimum inhibitory concentration [1] | minimum inhibitory concentration [2] |
| --- | --- | --- |
| CC(C)(C)OC(=O)N1CCN(c2nccc(-c3ccc(-c4ccc(Cl)cc4)s3)n2)CC1 | > 50 µM | > 50 µM |
| COc1ccc(Nc2ccccc2NC(=O)c2ccc(O)nc2)cc1 | > 50 µM | > 50 µM |
| Cc1ccc(NC(=O)c2nc[nH]c2C(=O)Nc2nc3ccccc3[nH]2)c(C)c1 | > 50 µM | > 50 µM |
| Cc1cc(C(=O)Nc2ccc(-c3ccccc3)cc2)no1 | > 50 µM | > 50 µM |
| Cc1ccc2nc(Cl)c(CNCc3cccs3)cc2c1 | > 50 µM | > 50 µM |
| Cc1ccc(S(=O)(=O)N2CCN(C(=O)c3cc(-c4ccccc4)n[nH]3)CC2)cc1 | > 50 µM | > 50 µM |
| C[C@@H]1[C@H](O)[C@@H](C)/C=C/C=C/C=C/C=C/C=C/C=C/C=C/[C@H](O[C@@H]2O[C@H](C)[C@@H](O)[C@H](N)[C@@H]2O)C[C@@H]2O[C@](O)(C[C@@H](O)C[C@@H](O)[C@H](O)CC[C@@H](O)C[C@@H](O)CC(=O)O[C@H]1C)C[C@H](O)[C@H]2C(=O)O | 50 µM (≈ 46.2 µg/mL) | 50 µM (≈ 46.2 µg/mL) |
| O=C(NCc1cc(Cl)cc(Cl)c1)c1c(C(F)(F)F)nc2ccccn12 | > 50 µM | > 50 µM |
| CCCn1c(NC(=O)c2ccc3ccccc3n2)nc2ccccc21 | > 50 µM | > 50 µM |
| Cc1ncc(-c2ccnc(Nc3ccc(S(C)(=O)=O)cc3)n2)n1C(C)C | > 50 µM | > 50 µM |
| O=C(NCCc1c[nH]c2ccccc12)c1cc2ccccc2oc1=O | > 50 µM | > 50 µM |
| COc1ccccc1C(C)NCC(=O)Nc1cc(C(F)(F)F)ccc1Cl (stereo not drawn) | > 50 µM | > 50 µM |
| Nc1c2c(nc3sc4c(c13)CCCC4)CCCC2 | > 50 µM | > 50 µM |
| CC(=O)N1CCN(c2ccc(Oc3ccc(Cl)cc3O)cc2)CC1 | > 50 µM | > 50 µM |
| O=C(c1[nH]nc2c1CCCC2)N1CCN(Cc2ccc3c(c2)OCO3)CC1 | > 50 µM | > 50 µM |
| Cc1nc(-c2ccccn2)nc(N2CCC(Cc3ccccc3)C2)c1Cl (stereo not drawn) | > 50 µM | > 50 µM |
| CC(Oc1cccc(Cl)c1)C(=O)Nc1ccc2oc(-c3ccncc3)nc2c1 (stereo not drawn) | > 50 µM | > 50 µM |
| COc1ccc(S(=O)(=O)Nc2ccc(CN3CCN(C(=O)c4cccc(C#N)c4)CC3)cc2)cc1 | > 50 µM | > 50 µM |
| Nc1nc(N)c2c3c(sc2n1)CN(Cc1ccccc1)CC3 | > 50 µM | > 50 µM |
| CC(C)C(C(=O)Nc1ccc(S(=O)(=O)N(C)C)cc1)c1ccc(Cl)cc1 (stereo not drawn) | > 50 µM | > 50 µM |
| CC(C)=CCC/C(C)=C/CNCCNC1C2CC3CC(C2)CC1C3 (stereo not drawn) | 50 µM (≈ 16.5 µg/mL) | 50 µM (≈ 16.5 µg/mL) |
| CCOc1ccc2cc(-c3nn(CC4CCN(C)CC4)c4ncnc(N)c34)ccc2c1 | > 50 µM | > 50 µM |
| Nc1ncnc2c1c(-c1cnc3ccccc3c1)nn2CC1CCNCC1 | > 50 µM | > 50 µM |
